Assay results from patent US4560703A, “Clavulone derivatives, process for preparing the same, and use of said compounds” (Fujisawa Pharmaceutical Co., Ltd., priority 1982, dated 1985).

Key:
[1] = tested on: B-16 melanoma cells; experiment: Anti-tumor effect on B-16 melanoma in mice; type: in vivo, C57BL/6 female mice; settings: local injection
Description: C57BL/6 female mice (12 weeks old, weighing 18.4-21.6 g, each group: 10 animals) were used.
The test drug was prepared by dissolving clavulone-2 in ethanol and diluting with a saline solution in a concentration of clavulone-2 of 100 μg/ml.
B-16 melanoma cells were serially passaged in subcutaneously implanted form in C57BL/6 mice. The tumor cells were dissected out from C57BL/6 mice on 16th day after implantation, weighed, and mixed homogeneously with Hank's solution in a ratio of 1:9 by weight.
Tumor cells (2×10^5 cells/0.05 ml/mouse) were implanted subcutaneously. The test drug (clavulone-2, 10 μg/0.1 ml) was injected locally into tumor cell-implanted site for three weeks except the weekend. Control mice were injected with a vehicle (1% ethanol in saline solution) in the same as above.
After 21 days from the implantation of tumor cells, mice were killed by chloroform anethesia, and the tumor masses were removed and weighed. The anti-tumor effect of clavulone-2 was evaluated by means of growth inhibition rate calculated by the following equation:
Growth inhibition rate (%)=(1-T/C)×100
T: Mean tumor weight of mice treated with the test compound-containing solution
C: Mean tumor weight of mice treated with the vehicle solution.

[2] = tested on: DBA/MC fibrosarcoma cells; experiment: Inhibitory activity on proliferation of DBA/MC fibrosarcoma cells; type: cell-based, mice; settings: Mus musculus, 48 hours, read-out: Inhibitory Rate (%); for inhibition at 3 µg/mL: 3.0 μg/ml; for inhibition at 20 µg/mL: 20.0 μg/ml; for inhibition at 30 µg/mL: 30.0 μg/ml
Description: (§1) Moreover, the anti-tumor activities of the clavulone derivatives (I) were tested by the inhibitory activity on propagation of leukemia L-1210 cells, DBA/MC fibrosarcoma cells, and B-16 melanoma cells in mice and also apothanasia effect of mice implanted with leukemia P388 cells and Ehrlich carcinoma cells as in the following experiments.
The test compounds (clavulone derivatives) were each dissolved in ethanol and diluted with a phosphate-buffer physiological saline solution and further diluted with an eagle's MEM medium in a prescribed concentration. Said eagle's MEM medium contained 20% by weight of fetal calf serum and 0.4% by weight of lactalubumin hydrolysates.
DBA/MC Fibrosarcoma cells (cell concentration: 2.5×10^4 cells/ml) were floated on the eagle's MEM medium and cultured under the conditions of 5% CO2 in air, saturated humidity and at 37° C. for 24 hours. Thereafter, the medium was replaced with the above test compound-containing medium and then it was cultured under the same conditions for 48 hours.
Immediately after the cultivation, the DBA/MC cells were fised with methanol and stained with Giemsa solution. The stained cells were counted with a microscope, and the number of stained cells was compared with that of the control group (no test compound was added). The inhibitory rate was calculated by the following equation: [formula]

[3] = tested on: granulation tissue; experiment: Inhibitory effect on proliferation of granulation tissue (fertile egg method); type: in vivo, Babcock strain chickens (fertile eggs); settings: for inhibitory effect on proliferation of granulation tissue (in words): fertile egg method
Description: The anti-inflammatory activity was tested by the inhibitory effect on proliferation of granulation tissue which is one of the tests for determining anti-inflammatory activity as follows:
Fertile eggs of Babcock strain chickens were incubated at 38° C. for 9 days. The shell and shell membrane were then removed according to the method of D'arcy et al (cf. D'arcy, P. F. et al, Brit. J. Pharmac. Chemother., 29, 378 (1967). A sterile filter paper disc (diameter: 9 mm) was implanted on the chorio-allantoic membrane and the opening in the shell was sealed with cellophane tape. The eggs were then reincubated for 4 days and at the end of this period, the filter paper disc with granulation tissue was dissected from the chorio-allantoic membrane and then dried at 60° C. for 12 hours. In order to assess the actual amount of granulation tissue present, the weight of filter paper disc which was used in this experiment was subtracted from the total weight of the disc plus granulation tissue.
The test compound was dissolved in an organic solvent (acetone) and 20 μl of the solution was applied on the each disc. The disc was dried and then used in this test. The mean weight of the granulation tissue in each group was compared with that of the control group which was treated with a vehicle alone.
Clavulone-1, clavulone-2, clavulone-3, clavulone-4 and clavulone-5 were used as the test compounds.

[4] = tested on: leukemia L-1210 cells; experiment: Inhibitory activity on proliferation of leukemia L-1210 cells; type: cell-based, mice; settings: Mus musculus, L1210, 96 h, 4 days, read-out: Growth Rate (%) (viable cells, control = 100); for activity at 0.1 µg/mL: 0.1 μg/ml; for activity at 0.4 µg/mL: 0.4 μg/ml; for activity at 1 µg/mL: 1.0 μg/ml; for activity at 0.2 µg/mL: 0.2 μg/ml
Description: as §1
The test compounds (clavulone-1, -2 and -3) were each dissolved in ethanol and diluted with a medium (RPMI-1640) in a prescribed concentration. Said RPMI-1640 medium contained 10% by weight of fetal calf serum.
Leukemia L-1210 cells (cell concentration: 1×10^5 cells/ml) were inoculated in the RPMI-1640 medium containing the test compound (0.1 to 4.0 μg/ml) and cultured under the conditions of 5% CO2 in air, saturated humidity and at 37° C. for 4 days.
Immediately after the cultivation, the L-1210 cells were stained with trypan blue. Number of viable cells (i.e. cells which were not stained with trypan blue) was counted, and the number of viable cells was compared with that in the control group (no drug was added). The results are shown in Table 2, wherein the number of viable cells in the control group was counted as 100.

[5] = tested on: Ehrlich carcinoma cells; experiment: Anti-tumor effect in mice implanted with Ehrlich carcinoma cells; type: in vivo, female ICR strain mice; settings: for MST / Survivors on 60th day/number of mice in one group / I.L.S. (%): 1st-4th day; for I.L.S. (%): 25 or more = effective
Description: Six or twelve female ICR strain mice (6 weeks old, weighing 22.2-26.8 g) were used.
The test drug was prepared by mixing clavulone-2 with gum arabic, suspending the mixture in a sterilized saline solution in a concentration of clavulone-2 of 10, 18 or 25 mg/10 ml.
Ehrlich carcinoma cells were serially passaged in an ascites form in ICR strain mice. The tumor cells were harvested from ICR strain mice on 6th day after inoculation, washed with and resuspended in Hank's solution in a concentration of 5×10^5 cells/ml.
Tumor cells (1×10^5 cells/0.2 ml/mouse) were implanted intraperitoneally. The test drug (clavulone-2, 10 ml/kg) was injected intraperitoneally once a day from first to 4th day after the implantation of tumor cells. Control mice were injected with a saline solution in the same as above.
The anti-tumor effect of clavulone-2 was evaluated by means of I.L.S. (%) which was calculated by the following equation: [formula]

[6] = tested on: leukemia P388 cells; experiment: Apothanasia effect in mice implanted with leukemia P388 cells; type: in vivo, BDFI male mice; settings: intraperitoneal, once a day, 1st-4th and 7th-11th day
Description: Clavulone-2 was mixed with gum arabic in the ratio of 1.6:1 by weight and was mixed with a physiological saline solution in a prescribed concentration to give a test compound solution.
BDFI male mice (5 weeks old, weighing 22.0-24.4 g, 6 animals per group) were used.
Each mice was inoculated intraperitoneally with leukemia P388 cells (cell concentration: 1×10^7 cells/ml) in 0.2 ml Hank's solution. A solution of a test compound in a physiological saline solution was injected intraperitoneally once a day from the first day to 4th day and also from 7th day to 11th day after inoculation of the tumor cells. The control group was given with a vehicle (a physiological saline solution) alone in the same way.
The apothanasia effect of the test compound was estimated by comparing mean survival time between the medicated group and the control group by the following equation: [formula]

[7] = 10 μg/0.1 ml, three weeks except weekend, 21 days

Row | Compound | inhibition at 3 µg/mL [2] | inhibition at 20 µg/mL [2] | Inhibitory rate (%) ([3]; Dose 30, on filter paper disc) | Inhibitory rate (%) ([3]; Dose 100, on filter paper disc) | inhibitory effect on proliferation of granulation tissue (in words) [3] | activity at 0.1 µg/mL [4] | activity at 0.4 µg/mL [4] | activity at 1 µg/mL [4] | other results
1 | COC(=O)CCC(/C=C\C=C1\C(=O)C=CC1(C/C=C\CCCCCOC(C)=O)OC(C)=O)OC(C)=O (centres unmarked) [Clavulone-6] | 90% | 100% | – | – | – | – | – | – | Growth inhibition rate (%) [1, 7]: 73%; growth of B-16 melanoma in mice (in words) ([1]; 21 days): regressed significantly; inhibition at 30 µg/mL [2]: 100%
2 | COC(=O)CCC(/C=C/C=C1\C(=O)C=CC1(C/C=C\CCCCCOC(C)=O)OC(C)=O)OC(C)=O (centres unmarked) [Clavulone-5] | 0% | 100% | 18.2% | 31.6% | showed the inhibitory effect on proliferation of granulation tissue | – | – | – | –
3 | CCCCCCCCC1CCC(=O)C1CCCC(CCC(=O)OC)OC(C)=O (centres unmarked) [Clavulone-13] | 0% | – | – | – | – | – | – | – | inhibition at 30 µg/mL [2]: 100%
4 | COC(=O)CCC(/C=C/C=C1/C(=O)C=CC1(C/C=C\CCCCCOC(C)=O)OC(C)=O)OC(C)=O (centres unmarked) [Clavulone-4] | 0% | 100% | 18.3% | 34.2% | showed the inhibitory effect on proliferation of granulation tissue | – | – | – | –
5 | CCCCC/C=C\CC1(OC(C)=O)C=CC(=O)/C1=C/C=C\C(CCC(=O)OC)OC(C)=O (centres unmarked) [Clavulone-1] | 50% | 100% | 15.8% | 30.4% | showed the inhibitory effect on proliferation of granulation tissue | 100% | 24.7% | 0% | –
6 | CCCCC/C=C\CC1(OC(C)=O)C=CC(=O)/C1=C/C=C/C(CCC(=O)OC)OC(C)=O (centres unmarked) [Clavulone-2] | 0% | 100% | 10.1% | 21.0% | showed the inhibitory effect on proliferation of granulation tissue | 61.5% | 16.9% | 0% | Growth inhibition rate (%) [1, 7]: 73%; Mean tumor weight (g; ± S.E.) [1, 7]: 0.882 ± 0.388 g; number of survivors 21th day after implantation of tumor cells ([1]; 10 μg/0.1 ml, group of 10 animals): 10; MST ([5]; 10 mg/kg, intraperitoneal): 26.5 days; Survivors on 60th day/number of mice in one group ([5]; 10 mg/kg, intraperitoneal): 2/6; I.L.S. (%) ([5]; 10 mg/kg, intraperitoneal): 23%; animals survived 60 days after implantation of tumor cells ([5]; 18 mg/10 ml/kg): 50%; MST ([5]; 18 mg/kg, intraperitoneal): 50.0 days; Survivors on 60th day/number of mice in one group ([5]; 18 mg/kg, intraperitoneal): 3/6; I.L.S. (%) ([5]; 18 mg/kg, intraperitoneal): 133%; activity against Ehrlich ascites tumor in vivo (in words) ([5]; intraperitoneal): high activity against Ehrlich ascites tumor in vivo; Apothanasia effect (%) ([6]; 4.0 mg/kg): 130%; Apothanasia effect (%) ([6]; 8.0 mg/kg): 130%; activity at 0.2 µg/mL [4]: 55.4%
7 | CCCCC/C=C\CC1(OC(C)=O)C=CC(=O)/C1=C\C=C\C(CCC(=O)OC)OC(C)=O (centres unmarked) [Clavulone-3] | 0% | 100% | 26.1% | 31.0% | showed the inhibitory effect on proliferation of granulation tissue | 87.5% | 17.2% | 0% | activity at 0.2 µg/mL [4]: 52%
